The values below are quoted from earlier work in US20140228218A1, “PARAFFINIC OIL AND CLASS B GIBBERELLIN BIOSYNTHESIS INHIBITOR COMPOSITIONS” (SUNCOR ENERGY INC., priority 2011, published 2014).

The data set has as its system the plant being treated. To be noted: in vivo.

As to `CC(C)(C)[C@@H](O)[C@@H](Cc1ccc(Cl)cc1)n1cncn1` (relative stereo) [paclobutrazol, (±)-(R*,R*)-beta-[(4-chlorophenyl)methyl]-alpha-(1,1-dimethylethyl)-1H-1,2,4-triazole-1-ethanol], the “phytotoxicity to the plant being treated (in words)” value was “can cause phytoxicity”.
